Experimental data taken from US12697326B2, “Methods of treating hepatic encephalopathy” (SALIX PHARMACEUTICALS, INC., priority 2008, dated 2026).
Where “and” joins values, the source holds several entries; their conditions need not be identical. Equal values may be shown once.

Assays:
patients with HE = test: Retrospective chart review of 145 patients with HE, lactulose then rifaximin; format: in vivo, human
From the text: Total number of hospitalizations, duration of hospitalizations, HE endpoints, and cost of therapy were compared between the 2 treatment regimens.

[1] = test system: breakthrough overt HE episode in subjects with HE; test: Breakthrough overt HE episodes, second study (open-label treatment extension); format: in vivo, human
Protocol: Unlike the first study, subjects were not required to withdraw from the study after experiencing a breakthrough overt HE episode.
Conn scores and asterixis grades were assessed during the course of the study.
Therefore, the incidence of breakthrough overt HE over time during rifaximin therapy was evaluated. Table 24 presents breakthrough overt HE episodes by total number of HE episodes during the course of the study.

in vitro = conditions: human, in vivo
[2] = test system: blood ammonia concentration in subjects with HE; test: Blood (venous) ammonia concentration, change from baseline, first study; format: in vivo, human; conditions: ITT, change from baseline to end of treatment
Protocol: Venous blood samples (10 mL) were collected and ammonia concentrations were obtained by methods known in the art.
(§1) Mean values and mean changes from baseline in blood ammonia concentration and critical flicker frequency values were collected. Analyses of blood ammonia concentrations and critical flicker frequency values were based upon quantitative values (not qualitative grades). Treatment differences for mean change from baseline in these parameters was estimated using a mixed effects model with fixed effects for time and baseline value.
Table 22 summarizes changes from baseline to end of treatment in venous ammonia level by treatment group in the first study.

[3] = test system: Conn score in subjects with HE; test: Level of change from baseline in Conn score by treatment group, first study; format: in vivo, human; conditions: 550 mg BID, Baseline to EOT
From the text: The scale used in the Conn scoring system is provided below. • Grade 0=No personality or behavioral abnormality detected • Grade 1=Trivial lack of awareness, euphoria or anxiety; shortened attention span; impairment of addition or subtraction • Grade 2=Lethargy; disorientation for time; obvious personality change; inappropriate behavior • Grade 3=Somnolence to semi-stupor, responsive to stimuli; confused; gross disorientation; bizarre behavior • Grade 4=Coma; unable to test mental state
Change in mental status was measured by the Conn score (also known as the West Haven score). The Conn score has been widely used as a measure of mental state in HE studies and is based on the criteria of Parsons-Smith as modified by Conn. The scale used in the Conn scoring system is described above.

clinical = conditions: human, in vivo
[4] = test system: liver transplant patients with HE; test: Chart review of 39 liver transplant patients with HE Conn scores of 2; format: in vivo, human; conditions: 24 lactulose, 15 rifaximin
[5] = test system: hospitalization in subjects with HE; test: Hospitalizations, second study; format: in vivo, human
From the text: Normalizing for subject exposure, this represents a hospitalization rate of 0.60 event/PEY. A total of 59 were hospitalized due HE episodes (e.g., HE-caused). Normalizing for subject exposure, this represents an HE-caused hospitalization rate of 0.29 event/PEY. […] All subjects were capable of worsening over time, and 24/266 subjects (9.0%) did so by 1 or 2 grades.

[6] = test system: critical flicker frequency in subjects with HE; test: Critical flicker frequency (CFF) test, change from baseline, first study; format: in vivo, human
Protocol: The critical flicker frequency (CFF) was assessed for each subject using a specialized CFF instrument. The CFF is the frequency at which the subject observes a constant light transition to a flickering light and is measured in Hertz (Hz). CFF is an objective assessment of mental status.
The CFF was measured on a continuous scale and was the mean of 8 separate fusion-to-flicker transition tests performed in rapid succession.
as §1
A critical flicker frequency (CFF) assessment, a recognized quantitative measure of CNS dysfunction, was an efficacy endpoint in the first study. CFF tests utilize the correlation between cerebral processing of oscillatory visual stimuli and CNS impairment due to increased HE severity.^10,11,12,13 This test identifies a frequency at which a flickering light is perceived as steady. A decline in this frequency has been associated with increasing severity of HE. Likewise, elevation in blood ammonia, another endpoint in the first study, is a quantitative assessment associated with the CNS effects underlying overt HE.

[7] = Continuing Rifaximin N = 70, second study
[8] = New Rifaximin N = 196, second study
[9] = Rifaximin N = 266 (all rifaximin), second study
[10] = first study placebo subjects crossed over to rifaximin in second study
[11] = second study, all rifaximin, up to 680 days
[12] = second study, continuing rifaximin group, up to 680 days
[13] = second study, new rifaximin group, up to 680 days
[14] = 550 mg BID, Baseline to Day 140

CO[C@H]1/C=C/O[C@@]2(C)Oc3c(C)c(O)c4c(O)c(c5c(nc6cc(C)ccn65)c4c3C2=O)NC(=O)/C(C)=C\C=C\[C@H](C)[C@H](O)[C@@H](C)[C@@H](O)[C@@H](C)[C@H](OC(C)=O)[C@@H]1C [Rifaximin]
patients with Conn scores of 3 or 4 at end of treatment period (patients with HE): 6% | hospitalizations (patients with HE; lactulose 30 mL twice daily then rifaximin 400 mg 3 times/day): 0.5 | Subjects with total number of HE episodes during the study: 1, % [1, 7]: (14.3) % | Subjects with total number of HE episodes during the study: 2, % [1, 7]: (8.6) % | Subjects with total number of HE episodes during the study: 4, % [1, 7]: (1.4) % | Subjects with total number of HE episodes during the study: 6, % [1, 7]: (1.4) % | Subjects with ≥1 breakthrough overt HE episode, % [1, 7]: (25.7) % | Subjects with total number of HE episodes during the study: 1, % [1, 8]: (17.3) % | Subjects with total number of HE episodes during the study: 2, % [1, 8]: (6.1) % | Subjects with total number of HE episodes during the study: 3, % [1, 8]: (2.0) % | Subjects with total number of HE episodes during the study: 4, % [1, 8]: (0.5) % | Subjects with total number of HE episodes during the study: 5, % [1, 8]: (0.5) % | Subjects with total number of HE episodes during the study: 10, % [1, 8]: (1.0) % | Subjects with ≥1 breakthrough overt HE episode, % [1, 8]: (27.6) % | Subjects with total number of HE episodes during the study: 1, value in parentheses [1, 9]: (16.5) 90 | Subjects with total number of HE episodes during the study: 2, value in parentheses [1, 9]: (6.8) 90 | Subjects with total number of HE episodes during the study: 3, value in parentheses [1, 9]: (1.5) 90 | Subjects with total number of HE episodes during the study: 4, value in parentheses [1, 9]: (0.8) 90 | Subjects with total number of HE episodes during the study: 5, value in parentheses [1, 9]: (0.4) 90 | Subjects with total number of HE episodes during the study: 6, value in parentheses [1, 9]: (0.4) 90 | Subjects with total number of HE episodes during the study: 10, value in parentheses [1, 9]: (0.8) 90 | Subjects with ≥1 breakthrough overt HE episode, value in parentheses [1, 9]: (27.1) 90 | reduction in risk of breakthrough overt HE during rifaximin treatment vs prior placebo experience [1, 10]: 70% | subjects with breakthrough overt HE during rifaximin treatment (of 82) [1, 10]: 15 | subjects with 3 or more breakthrough HE episodes ([1]; second study): Ten | proportion of subjects with breakthrough overt HE [1, 11]: 27.1% | subjects with breakthrough overt HE (of 266) [1, 11]: 72 | proportion of subjects with breakthrough overt HE [1, 12]: 25.7% | subjects with breakthrough overt HE (of 70) [1, 12]: 18 | proportion of subjects with breakthrough overt HE [1, 13]: 27.6% | subjects with breakthrough overt HE (of 196) [1, 13]: 54 | fraction unbound (in vitro): 0.447 | Mean (SD) change in ammonia level [2]: −5.7 (46.77) μg/dL | Change from baseline in Conn score, Max [3]: 2 | Change from baseline in Conn score, Mean [3]: −0.1 | Change from baseline in Conn score, Median [3]: 0.0 | Change from baseline in Conn score, Min [3]: −1 | Number of subjects with change from baseline in Conn score of 0 ([3]; n = 139): 101 | Number of subjects with change from baseline in Conn score of 1 ([3]; n = 139): 10 | Number of subjects with change from baseline in Conn score of 2 ([3]; n = 139): 2 | Number of subjects with change from baseline in Conn score of 3 ([3]; n = 139): 0 | Number of subjects with change from baseline in Conn score of −1 ([3]; n = 139): 26 | Percent of subjects with change from baseline in Conn score of 0 ([3]; n = 139): 72.7% | Percent of subjects with change from baseline in Conn score of 1 ([3]; n = 139): 7.2% | Percent of subjects with change from baseline in Conn score of 2 ([3]; n = 139): 1.4% | Cmax (clinical): 52.2 ng/mL and 66.4 nM | hospitalizations reported for the group [4]: 3 | all cause hospitalization rate [5]: 0.60 event/PEY | subjects hospitalized due HE episodes (HE-caused) [5]: 59 | subjects hospitalized for any cause (of 266) ([5]; all rifaximin): 133 | subjects hospitalized for any cause ([5]; continuing rifaximin group): 35 | subjects hospitalized for any cause ([5]; new rifaximin group): 98 | Change from Baseline in Critical Flicker Frequency Test, Max [6, 14]: 12 Hz | Change from Baseline in Critical Flicker Frequency Test, Mean [6, 14]: 1.4 Hz | Change from Baseline in Critical Flicker Frequency Test, Median [6, 14]: 1.5 Hz | Change from Baseline in Critical Flicker Frequency Test, Min [6, 14]: −15 Hz | Change from Baseline in Critical Flicker Frequency Test, Max ([6]; 550 mg BID, Baseline to EOT): 11 Hz | Change from Baseline in Critical Flicker Frequency Test, Mean ([6]; 550 mg BID, Baseline to EOT): 0.9 Hz | Change from Baseline in Critical Flicker Frequency Test, Median ([6]; 550 mg BID, Baseline to EOT): 0.1 Hz | Change from Baseline in Critical Flicker Frequency Test, Min ([6]; 550 mg BID, Baseline to EOT): −14 Hz | Critical Flicker Frequency Test, Max ([6]; 550 mg BID, Day 140): 49 Hz | Critical Flicker Frequency Test, Min ([6]; 550 mg BID, Day 140): 27 Hz | Critical Flicker Frequency Test, Max ([6]; 550 mg BID, EOT): 49 Hz | Critical Flicker Frequency Test, Median ([6]; 550 mg BID, EOT): 37.8 Hz | Critical Flicker Frequency Test, Min ([6]; 550 mg BID, EOT): 25 Hz | Mean changes (±SD) in CFF results ([6]; first study, rifaximin group, baseline to end of treatment): 0.945 (±4.75)
